Results reported in ChEMBL document CHEMBL1134235, “Bisphosphonates derived from fatty acids are potent growth inhibitors of Trypanosoma cruzi” (Bioorg Med Chem Lett, 2001).
pIC50: −log10 of the molar value.

Assays:
Trypanosoma cruzi [1] = test: In vitro antiparasitic activity against Trypanosoma cruzi (amastigotes); type: functional, organism-based
Trypanosoma cruzi [2] = test: In vitro antiparasitic activity against Trypanosoma cruzi (epimastigotes); type: functional, organism-based
Trypanosoma cruzi [3] = test: In vitro […] antiparasitic activity against Trypanosoma cruzi at 70 uM (amastigotes); type: functional
Trypanosoma cruzi [4] = test: In vitro […] antiparasitic activity against Trypanosoma cruzi at 50 uM (amastigotes); type: functional

Row | SMILES | pIC50 (Trypanosoma cruzi [1]) | pIC50 (Trypanosoma cruzi [2]) | inhibition at 70 µM (Trypanosoma cruzi [3]) | inhibition at 50 µM (Trypanosoma cruzi [4])
1 | O=P(O)(O)C(O)(COc1ccc(Oc2ccccc2)cc1)P(=O)(O)O | < 4.30 | – | 23% | –
2 | O=P(O)(O)C(O)(COc1ccc(Cl)cc1Cl)P(=O)(O)O | < 4.30 | – | – | 37%
3 | CCCCCC(O)(P(=O)(O)O)P(=O)(O)O | 4.15 | < 4.15 | 34% | –
4 | O=P(O)(O)C(O)(COc1ccccc1)P(=O)(O)O | < 4.15 | – | 16% | –
5 | CCCC(O)(P(=O)(O)O)P(=O)(O)O | 4.67 | < 4.15 | – | –
6 | CCCCCCCCCC(O)(P(=O)(O)O)P(=O)(O)O | < 4.15 | < 4.15 | 10% | –
7 | CCCCCCC(O)(P(=O)(O)O)P(=O)(O)O | 4.74 | < 4.15 | – | –
8 | CCCCCCCCCCCCCC(O)(P(=O)(O)O)P(=O)(O)O | 4.27 | – | – | –

More lines, main results first:

Row | pIC50 (Trypanosoma cruzi [1]) | pIC50 (Trypanosoma cruzi [2]) | SMILES | inhibition at 70 µM (Trypanosoma cruzi [3]) | inhibition at 50 µM (Trypanosoma cruzi [4])
9 | 4.18 | < 4.15 | CCCCCCCCC(O)(P(=O)(O)O)P(=O)(O)O | – | –
10 | < 4.15 | < 4.15 | CCCCCCCC(O)(P(=O)(O)O)P(=O)(O)O | 41% | –
11 | 4.19 | – | NCCCC(O)(P(=O)(O)O)P(=O)(O)O [ALENDRONIC ACID] | – | –
12 | 4.19 | – | NCCC(O)(P(=O)(O)O)P(=O)(O)O [PAMIDRONIC ACID] | – | –
13 | 3.52 | – | O=P(O)(O)C(O)(Cc1cccnc1)P(=O)(O)O [RISEDRONIC ACID] | – | –
